In US8513275B2 (Salix Pharmaceuticals, Ltd, priority 2010, dated 2013):
Entries after “also recorded” stand apart in the source; their conditions may differ. Where two headings read alike, the source gives them in different places. Marks after values point to notes of the source that are not given here. One block for each compound: values may come before it.

Assays:
[1] = Particle size distributions for Rifaximin forms; type: physicochemical; settings: for d10: 10% of the total volume of particles less than the indicated size; for d50: 50% of the total volume of particles less than the indicated size; for d90: 90% of the total volume of particles less than the indicated size
[2] = Dynamic vapor sorption (moisture sorption, moisture balance) with post-sorption XRPD; type: physicochemical; settings: for weight loss from 95 to 5% RH: desorption 95-5% RH; for post-moisture sorption (post-MB / post-DVS) XRPD result: solid after DVS cycle; for weight gain from 5 to 95% RH: sorption 5-95% RH; for overall weight loss in moisture sorption: whole sorption/desorption cycle
Experimental: (§1) Automated vapor sorption (VS) data were collected on a VTI SGA-100 Vapor Sorption Analyzer. NaCl and PVP were used as calibration standards. Samples were not dried prior to analysis. […] The equilibrium criterion used for analysis was less than 0.0100% weight change in 5 minutes with a maximum equilibration time of 3 hours. Data were not corrected for the initial moisture content of the samples.
as §1, with “Automated dynamic” for “Automated”, “(DVS)” for “(VS)”, “hours.” for “hours. Data were not corrected for the initial moisture content of the samples.”

[3] = Ambient storage / exposure to ambient conditions, XRPD; type: physicochemical; settings: for XRPD result after ambient storage: 8 days of ambient storage, large-scale sample
Source text: Form θ drying and physical stability evaluation was not formally included in the protocol. […] The initial sample was generated from nitrogen drying of Form ζ. The initial XRPD pattern was acquired utilizing parameters not consistent with the other data acquisition.

[4] = Relative humidity stressing at ambient temperature, XRPD of stressed solid; type: physicochemical
[5] = VS w/ACN
Experimental: Subsequent characterization of cocrystal 2 was conducted quickly after isolating vapor stressed samples.
The 20-mL vial was capped and left at ambient conditions for vapor stress.

[6] = water slurry, 5 minutes, 3 hours and 7 hours
Experimental: In order to be able to measure the aqueous solubility (equilibrium or kinetic) of a cocrystal, it should remain intact upon exposure to aqueous conditions for some duration. If it dissociates or changes forms quickly upon contact with water, intrinsic dissolution may be introduced as an alternative to solubility, in which dissolution of a pellet of the cocrystal is measured; however, the cocrystal must not change form upon compression.

[7] = 1000 psi, 1 min.
[8] = Properties of the Rifaximin:piperazine cocrystals (summary, Table 12); settings: summary column of Table 12
[9] = listed as As-Prepared Rifaximin Form κ
[10] = listed as post-drying rifaximin Form κ

Structure (SMILES): CO[C@H]1/C=C/O[C@@]2(C)Oc3c(C)c(O)c4c(O)c(c5c(nc6cc(C)ccn65)c4c3C2=O)NC(=O)/C(C)=C\C=C\[C@H](C)[C@H](O)[C@@H](C)[C@@H](O)[C@@H](C)[C@H](OC(C)=O)[C@@H]1C [As received, rifaximin]
d10 [1]: 0.399 μm
d50 [1]: 8.629 μm
d90 [1]: 33.891 μm

Structure (SMILES): CO[C@H]1/C=C/O[C@@]2(C)Oc3c(C)c(O)c4c(O)c(c5c(nc6cc(C)ccn65)c4c3C2=O)NC(=O)/C(C)=C\C=C\[C@H](C)[C@H](O)[C@@H](C)[C@@H](O)[C@@H](C)[C@H](OC(C)=O)[C@@H]1C [Post-Drying Rifaximin Form κ, rifaximin]
weight loss from 95 to 5% RH [2]: 11.0% wt lost from 95%-5% RH
weight loss from 95 to 5% RH [2, 10]: 11%
weight loss upon equilibration at 5% RH ([2]; initial equilibration at 5% RH): 0.1% wt loss upon equilibration at 5% RH
weight loss upon equilibration at 5% RH ([2]; initial equilibration at 5% RH, listed as post-drying rifaximin Form κ): 0.1%
post-moisture sorption (post-MB / post-DVS) XRPD result [2]: Disordered κ
post-moisture sorption (post-MB / post-DVS) XRPD result [2, 10]: disordered
weight gain from 5 to 95% RH [2]: 7.7% wt gain from 5%-95% RH
weight gain from 5 to 95% RH [2, 10]: 7.7%
overall weight loss in moisture sorption [2]: approximately 3.3%
XRPD result after humidity stress ([4]; 84% RH, RT, 19 days): Disordered κ

Structure (SMILES): C1CNCCN1.COC1C=COC2(C)Oc3c(C)c(O)c4c(O)c(c5c(nc6cc(C)ccn65)c4c3C2=O)NC(=O)C(C)=CC=CC(C)C(O)C(C)C(O)C(C)C(OC(C)=O)C1C.COC1C=COC2(C)Oc3c(C)c(O)c4c(O)c(c5c(nc6cc(C)ccn65)c4c3C2=O)NC(=O)C(C)=CC=CC(C)C(O)C(C)C(O)C(C)C(OC(C)=O)C1C (stereo not drawn) [cocrystal 1, rifaximin:piperazine cocrystal 1]
hygroscopicity by DVS [2]: quite hygroscopic
weight loss from 95 to 5% RH ([2]; listed as sample 4): 11.47% weight loss from 95-5% RH
weight loss upon equilibration at 5% RH ([2]; initial equilibration at 5% RH): 3.54% weight loss at 5% RH
post-moisture sorption (post-MB / post-DVS) XRPD result [2]: broad peaks, similar to cocrystal 1 with additional peaks at approximately 5 and 17°2θ; also recorded: broad peaks, similar to cocrystal 1 plus peaks at approximately 5 and 17°2θ
post-moisture sorption (post-MB / post-DVS) XRPD result ([2]; listed as Cocrystal 1): conversion to a material similar to cocrystal 1 plus two additional peaks
weight gain from 5 to 95% RH ([2]; listed as sample 4): 10.78% weight gain from 5-95% RH
XRPD result after RH stress ([4]; ~75% RH, 1 week): broad peaks, similar to cocrystal 1+ peak at ˜5°2θ
XRPD result after RH stress ([4]; ~75% RH, 1 week, listed as Cocrystal 1): broad peaks, similar to cocrystal 1 with an additional peak at approximately 5°2θ
XRPD result after RH stress ([4]; ~75% RH, 2 weeks): broad peaks, similar to cocrystal 1+ peak at ˜5°2θ
XRPD result after RH stress ([4]; ~75% RH, 2 weeks, listed as Cocrystal 1): broad peaks, similar to cocrystal 1 with an additional peak at approximately 5°2θ
XRPD result after RH stress ([4]; ~75% RH, 3 days): broad peaks, similar to cocrystal 1+ peak at ˜5°2θ
XRPD result after RH stress ([4]; ~75% RH, 3 days, listed as Cocrystal 1): broad peaks, similar to cocrystal 1 with an additional peak at approximately 5°2θ
XRPD result after RH stress ([4]; ~97% RH, 1 week, listed as Cocrystal 1): Conversion to Rifaximin Form β-1
XRPD result after RH stress ([4]; ~97% RH, 1 week, listed as Rifaximin:Piperazine Cocrystal 1): API, Form β-1
XRPD result after RH stress ([4]; ~97% RH, 3 days, listed as Cocrystal 1): conversion to Rifaximin Form β-1
XRPD result after RH stress ([4]; ~97% RH, 3 days, listed as Rifaximin:Piperazine Cocrystal 1): API, Form β-1
XRPD result after vapor stress with ACN ([5]; 7 days): conversion to cocrystal 2
XRPD result after vapor stress with ACN ([5]; 7 days, listed as Cocrystal 1): Cocrystal 2 resulted by XRPD
XRPD result after vapor stress with ACN ([5]; 7 days, listed as Rifaximin:Piperazine Cocrystal 1): cocrystal 2^c
XRPD result after vapor stress with ACN ([5]; 24 days, sample stood capped at ambient approx. 5-6 hours before XRPD): gave cocrystal 1 by XRPD
XRPD result after vapor stress with ACN ([5]; 24 days, sample stood capped at ambient approx. 5-6 hours before XRPD, listed as Rifaximin:Piperazine Cocrystal 1): cocrystal 1^b
XRPD result after slurrying in water ([6]; listed as Rifaximin:Piperazine Cocrystal 1): API, Form β-1
XRPD result after slurrying in water ([6]; listed as Rifaximin:piperazine cocrystal 1): conversion to Rifaximin Form β-1
XRPD result after compression [7]: additional peaks at approximately 5 and 17°2θ were observed by XRPD, and the material was low crystalline
Properties (hygroscopicity, stability) [8]: likely falls apart upon heating; also recorded: hygroscopic

Structure (SMILES): C1CNCCN1.CC#N.COC1C=COC2(C)Oc3c(C)c(O)c4c(O)c(c5c(nc6cc(C)ccn65)c4c3C2=O)NC(=O)C(C)=CC=CC(C)C(O)C(C)C(O)C(C)C(OC(C)=O)C1C.COC1C=COC2(C)Oc3c(C)c(O)c4c(O)c(c5c(nc6cc(C)ccn65)c4c3C2=O)NC(=O)C(C)=CC=CC(C)C(O)C(C)C(O)C(C)C(OC(C)=O)C1C (stereo not drawn) [cocrystal 2, rifaximin:piperazine cocrystal 2]
behaviour upon exposure to ambient conditions [3]: rapidly desolvates
form conversion after exposure to ambient conditions ([3]; longer exposure (ex. 12 days)): conversion to material similar to cocrystal 1, but exhibiting broad peaks with additional peaks at approximately 5 and 17°2θ
form conversion after exposure to ambient conditions ([3]; relatively short exposure (ex. 5-6 hours)): convert to cocrystal 1

Structure (SMILES): CO[C@H]1/C=C/O[C@@]2(C)Oc3c(C)c(O)c4c(O)c(c5c(nc6cc(C)ccn65)c4c3C2=O)NC(=O)/C(C)=C\C=C\[C@H](C)[C@H](O)[C@@H](C)[C@@H](O)[C@@H](C)[C@H](OC(C)=O)[C@@H]1C [η, rifaximin]
d10 [1]: 3.857 μm
d50 [1]: 79.844 μm
d90 [1]: 290.353 μm

The next lines start with results.

weight loss from 95 to 5% RH ([2]; listed as Rifaximin Form θ): 5.826% wt lost from 95%-5% RH
weight loss from 95 to 5% RH ([2]; listed as rifaximin Form θ): 5.8%
weight loss upon equilibration at 5% RH ([2]; initial equilibration at 5% RH, listed as rifaximin Form θ): 7.3%
post-moisture sorption (post-MB / post-DVS) XRPD result ([2]; listed as Rifaximin Form θ): ι
post-moisture sorption (post-MB / post-DVS) XRPD result ([2]; listed as rifaximin Form θ): Form ι; also recorded: Form t
weight gain from 5 to 95% RH ([2]; listed as Rifaximin Form θ): 5.733% wt gain from 5%-95% RH
weight gain from 5 to 95% RH ([2]; listed as rifaximin Form θ): 5.7%
overall weight loss in moisture sorption ([2]; listed as rifaximin Form θ): approximately 7.4%
XRPD result after ambient storage [3]: remained Form θ
XRPD result after ambient storage ([3]; listed as Rifaximin Form θ): θ (after 8 days of ambient storage)
XRPD result on reanalysis ([3]; reanalyzed within hours, nitrogen-dried sample): conversion to Form ι
Structure (SMILES): CO[C@H]1/C=C/O[C@@]2(C)Oc3c(C)c(O)c4c(O)c(c5c(nc6cc(C)ccn65)c4c3C2=O)NC(=O)/C(C)=C\C=C\[C@H](C)[C@H](O)[C@@H](C)[C@@H](O)[C@@H](C)[C@H](OC(C)=O)[C@@H]1C [Form θ, rifaximin]
wt change upon equilibration at 5% RH ([2]; signed change, initial equilibration at 5% RH): −7.314% wt change upon equilibration at 5% RH

weight loss from 95 to 5% RH [2, 9]: 12% wt loss from 95 to 5% RH.
weight loss from 95 to 5% RH ([2]; listed as rifaximin Form κ): 12%
weight loss upon equilibration at 5% RH ([2]; initial equilibration at 5% RH, listed as As-Prepared Rifaximin Form κ): 7.5% wt loss upon equilibration at 5% RH
weight loss upon equilibration at 5% RH ([2]; initial equilibration at 5% RH, listed as rifaximin Form κ): 7.5%
post-moisture sorption (post-MB / post-DVS) XRPD result [2, 9]: Disordered
post-moisture sorption (post-MB / post-DVS) XRPD result ([2]; listed as rifaximin Form κ): disordered
weight gain from 5 to 95% RH [2, 9]: 4.6% wt gain from 5 to 95% RH
weight gain from 5 to 95% RH ([2]; listed as rifaximin Form κ): 4.6%
overall weight loss in moisture sorption ([2]; listed as rifaximin Form κ): approximately 14.9%
d10 [1]: 15.551 μm
d50 [1]: 90.684 μm
d90 [1]: 225.815 μm
Structure (SMILES): CO[C@H]1/C=C/O[C@@]2(C)Oc3c(C)c(O)c4c(O)c(c5c(nc6cc(C)ccn65)c4c3C2=O)NC(=O)/C(C)=C\C=C\[C@H](C)[C@H](O)[C@@H](C)[C@@H](O)[C@@H](C)[C@H](OC(C)=O)[C@@H]1C [Form κ, rifaximin]
overall weight loss in moisture sorption [2, 9]: Overall wt loss = 14. 9% (equivalent to ~2 moles of IPA)
